Results on 30 compounds are retold here after patent US9434711B2 (Janssen Pharmaceutica, NV, priority 2007, dated 2016).

This experiment deals with canine TRPM8 (Canis lupus familiaris, UniProt Q1A7N1). The experiment in a line: In Vitro Canine TRPM8 Functional Assay (Ca2+ fluorescence, icilin activation). The class given is cell-based. Conditions: for inhibition at 0.2 µM / % Inh @ 0.2 (μM): compound at 0.2 μM, canine TRPM8, icilin activation; for inhibition at 0.2 µM: read-out: % Inh @ 0.2; for IC50: HEK293 cells stably expressing canine TRPM8, icilin activation, eight-point dose-response, read-out: IC50. In a few lines:
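Readout is the intracellular Ca2+ fluorescence change, measured by FLIPR or FDSS, in HEK293 cells stably expressing canine TRPM8. Potency (EC50 or IC50) is fitted from eight concentrations averaged over quadruplicate wells.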

Sequence of canine TRPM8 (Q1A7N1 1-1104): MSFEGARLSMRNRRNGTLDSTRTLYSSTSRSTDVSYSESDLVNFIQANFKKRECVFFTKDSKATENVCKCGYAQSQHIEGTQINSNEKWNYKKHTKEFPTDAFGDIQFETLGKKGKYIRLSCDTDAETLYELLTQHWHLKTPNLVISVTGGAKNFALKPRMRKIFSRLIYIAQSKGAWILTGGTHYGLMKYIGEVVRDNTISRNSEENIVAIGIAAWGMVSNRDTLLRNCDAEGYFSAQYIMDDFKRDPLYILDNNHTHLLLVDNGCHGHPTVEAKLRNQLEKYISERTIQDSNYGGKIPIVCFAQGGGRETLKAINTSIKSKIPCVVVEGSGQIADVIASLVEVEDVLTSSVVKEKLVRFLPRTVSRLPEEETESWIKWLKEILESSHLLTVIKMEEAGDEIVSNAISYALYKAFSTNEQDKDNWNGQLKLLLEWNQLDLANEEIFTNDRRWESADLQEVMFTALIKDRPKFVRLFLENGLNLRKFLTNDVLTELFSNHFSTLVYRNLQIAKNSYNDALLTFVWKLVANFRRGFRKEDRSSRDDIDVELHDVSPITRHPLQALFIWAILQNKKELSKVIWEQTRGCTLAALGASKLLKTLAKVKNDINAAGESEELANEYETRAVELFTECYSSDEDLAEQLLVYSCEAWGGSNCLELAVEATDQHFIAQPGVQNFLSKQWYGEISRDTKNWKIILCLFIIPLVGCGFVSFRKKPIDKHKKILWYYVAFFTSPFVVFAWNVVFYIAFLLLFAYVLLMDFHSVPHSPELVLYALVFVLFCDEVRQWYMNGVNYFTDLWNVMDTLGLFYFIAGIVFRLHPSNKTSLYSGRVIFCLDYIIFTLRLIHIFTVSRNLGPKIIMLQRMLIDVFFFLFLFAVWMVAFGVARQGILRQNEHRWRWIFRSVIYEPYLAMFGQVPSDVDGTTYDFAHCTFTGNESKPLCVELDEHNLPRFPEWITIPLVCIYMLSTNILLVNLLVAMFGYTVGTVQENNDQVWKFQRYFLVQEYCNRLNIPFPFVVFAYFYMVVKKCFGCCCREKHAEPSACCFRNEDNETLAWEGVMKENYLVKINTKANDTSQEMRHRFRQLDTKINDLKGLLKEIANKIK

In the case of `O=C(O)c1ccccc1S(=O)(=O)N(Cc1ccc(F)c(C(F)(F)F)c1)c1sc2ccccc2c1Br` [Compound 298, N-(3-Bromo-benzo[b]thiophen-2-yl)-N-(4-fluoro-3-trifluoromethyl-benzyl)-2-carboxy-benzenesulfonamide], the inhibition at 0.2 µM was determined as 18%. Consider `O=Cc1c(N(Cc2ccc(F)c(C(F)(F)F)c2)S(=O)(=O)c2ccc(C(=O)O)cc2)sc2ccccc12` [Compound 299, N-(3-Formyl-benzo[b]thiophen-2-yl)-N-(4-fluoro-3-trifluoromethyl-benzyl)-4-carboxy-benzenesulfonamide], for which the IC50 stood at 3 nM and the inhibition at 0.2 µM was found to be 90%.

Consider `NS(=O)(=O)N(Cc1ccc(F)c(C(F)(F)F)c1)c1cc2ccccc2s1` [Compound 300, N-(Benzo[b]thiophen-2-yl)-N-(4-fluoro-3-trifluoromethyl-benzyl)-sulfamide], for which the inhibition at 0.2 µM worked out at 21%. For `NS(=O)(=O)N(Cc1ccc(F)c(C(F)(F)F)c1)c1sc2ccccc2c1Br` [Compound 301, N-(3-Bromo-benzo[b]thiophen-2-yl)-N (4-fluoro-3-trifluoromethyl-benzyl)-sulfamide], the “% Inh @ 0.2 (μM)” value amounted to 63%.

As for `NS(=O)(=O)N(Cc1ccc(F)c(C(F)(F)F)c1)c1sc2ccccc2c1Cl` [Compound 302, N-(3-Chloro-benzo[b]thiophen-2-yl)-N-(4-fluoro-3-trifluoromethyl-benzyl)-sulfamide], the inhibition at 0.2 µM was determined as 50%. Take `NS(=O)(=O)N(CC1CC1)c1sc2ccccc2c1Br` [Compound 303, N-(3-Bromo-benzo[b]thiophen-2-yl)-N-(cyclopropylmethyl)-sulfamide]: the inhibition at 0.2 µM turned out to be 56%. For `NS(=O)(=O)N(CCC(F)(F)F)c1sc2ccccc2c1Br` [Compound 304, N-(3-Bromo-benzo[b]thiophen-2-yl)-N-(3,3,3-trifluoro-propyl)-sulfamide], the inhibition at 0.2 µM was determined as 29%. In the case of `Cc1c(N(Cc2ccc(F)c(C(F)(F)F)c2)S(=O)(=O)c2cccc(C(=O)O)c2)sc2ccccc12` [Compound 305, N-(3-Methyl-benzo[b]thiophen-2-yl)-N-(4-fluoro-3-trifluoromethyl-benzyl)-3-carboxy-benzenesulfonamide], the IC50 was determined as 12 nM and the inhibition at 0.2 µM amounted to 97%. As for `O=C(O)c1cccc(S(=O)(=O)N(Cc2ccc(F)c(C(F)(F)F)c2)c2sc3ccccc3c2Cl)c1` [Compound 307, N-(3-Chloro-benzo[b]thiophen-2-yl)-N-(4-fluoro-3-trifluoromethyl-benzyl)-3-carboxy-benzenesulfonamide], the IC50 was found to be 15.1 nM and the inhibition at 0.2 µM was determined as 101%. Regarding `CC(=O)c1ccc(S(=O)(=O)N(Cc2ccc(F)c(C(F)(F)F)c2)c2cc3ccccc3s2)cc1` [Compound 308, N-(Benzo[b]thiophen-2-yl)-N-(4-fluoro-3-trifluoromethyl-benzyl)-4-acetyl-benzenesulfonamide], the IC50 came out at 69.8 nM and the inhibition at 0.2 µM was found to be 92%. Regarding `CNS(=O)(=O)N(Cc1ccc(F)c(C(F)(F)F)c1)c1sc2ccccc2c1Cl` [Compound 309, N-(3-Chloro-benzo[b]thiophen-2-yl)-N-(4-fluoro-3-trifluoromethyl-benzyl)-N′-methyl-sulfamide], the IC50 was determined as 55 nM and the inhibition at 0.2 µM turned out to be 93%.

`O=S(=O)(c1cccnc1Cl)N(Cc1ccc(F)c(C(F)(F)F)c1)c1cc2ccccc2s1` [Compound 310, N-(Benzo[b]thiophen-2-yl)-N-(4-fluoro-3-trifluoromethyl-benzyl)-2-chloro-pyridin-3-ylsulfonamide]: the inhibition at 0.2 µM was determined as 69%. Turning to `O=S(=O)(c1ccc(Cl)nc1)N(Cc1ccc(F)c(C(F)(F)F)c1)c1cc2ccccc2s1` [Compound 311, N-(Benzo[b]thiophen-2-yl)-N-(4-fluoro-3-trifluoromethyl-benzyl)-2-chloro-pyridin-5-ylsulfonamide], the IC50 turned out to be 148 nM and the inhibition at 0.2 µM stood at 82%. The like results for `CC(=O)c1ccc(S(=O)(=O)N(Cc2ccc(F)c(C(F)(F)F)c2)c2sc3ccccc3c2Br)cc1` [Compound 312, N-(3-Bromo-benzo[b]thiophen-2-yl)-N-(4-fluoro-3-trifluoromethyl-benzyl)-4-acetyl-benzenesulfonamide] were, in that order, 11 nM and 102%.

Regarding `COC(=O)c1ccc(S(=O)(=O)N(Cc2ccc(F)c(C(F)(F)F)c2)c2sc3ccccc3c2C(C)=O)cc1` [Compound 313, N-(3-Acetyl-benzo[b]thiophen-2-yl)-N-(4-fluoro-3-trifluoromethyl-benzyl)-4-carbomethoxy-benzenesulfonamide], the concentration for half-maximal inhibition (IC50) was 21 nM and the inhibition at 0.2 µM was found to be 102%.

For the compound `CC(=O)c1c(N(Cc2ccc(F)c(C(F)(F)F)c2)S(=O)(=O)c2ccccc2)sc2ccccc12` [Compound 314, N-(3-Acetyl-benzo[b]thiophen-2-yl)-N-(4-fluoro-3-trifluoromethyl-benzyl)-benzenesulfonamide], the IC50 turned out to be 10 nM and the inhibition at 0.2 µM was 102%. On to `CN(C)S(=O)(=O)N(Cc1ccc(F)c(C(F)(F)F)c1)c1cc2ccccc2s1` [Compound 315, N-(Benzo[b]thiophen-2-yl)-N-(4-fluoro-3-trifluoromethyl-benzyl)-N′,N′-dimethlysulfamide], for which the IC50 is 64 nM and the “% Inh @ 0.2 (μM)” value is 99%. With `CC(C)(O)c1c(N(Cc2ccc(F)c(C(F)(F)F)c2)S(=O)(=O)c2ccccc2)sc2ccccc12` [Compound 316, N-(4-Fluoro-3-trifluoromethyl-benzyl)-N-[3-(1-hydroxy-1-methyl-ethyl)-benzo[b]thiophen-2-yl]-benzenesulfonamide], the half-inhibitory concentration (IC50) was found to be 10 nM and the inhibition at 0.2 µM was 101%. `CN(C)S(=O)(=O)N(Cc1ccc(F)c(C(F)(F)F)c1)c1sc2ccccc2c1Br` [Compound 317, N-(3-Bromo-benzo[b]thiophen-2-yl)-N-(4-fluoro-3-trifluoromethyl-benzyl)-N′,N′-dimethlysulfamide]: the 50% inhibitory concentration (IC50) was found to be 17 nM and the “% Inh @ 0.2 (μM)” value was 102%. Turning to `CC(=O)c1c(N(Cc2ccc(F)c(C(F)(F)F)c2)S(=O)(=O)c2ccc(C(=O)O)cc2)sc2ccccc12` [Compound 318, N-(3-Acetyl-benzo[b]thiophen-2-yl)-N-(4-fluoro-3-trifluoromethyl-benzyl)-4-carboxy-benzenesulfonamide], the 50% inhibitory concentration (IC50) came out at 15 nM and the inhibition at 0.2 µM worked out at 101%. `O=S(=O)(c1cccnc1Cl)N(Cc1ccc(F)c(C(F)(F)F)c1)c1sc2ccccc2c1Br` [Compound 319, N-(3-Bromo-benzo[b]thiophen-2-yl)-N-(4-fluoro-3-trifluoromethyl-benzyl)-2-chloro-pyridin-3-ylsulfonamide]: the IC50 stood at 24 nM and the inhibition at 0.2 µM came out at 100%. Turning to `O=S(=O)(c1ccc(Cl)nc1)N(Cc1ccc(F)c(C(F)(F)F)c1)c1sc2ccccc2c1Br` [Compound 320, N-(3-Bromo-benzo[b]thiophen-2-yl)-N-(4-fluoro-3-trifluoromethyl-benzyl)-2-chloro-pyridin-5-ylsulfonamide], the IC50 is 10 nM and the inhibition at 0.2 µM turned out to be 100%. On to `O=S(=O)(c1cccnc1Cl)N(Cc1ccc(F)c(C(F)(F)F)c1)c1sc2ccccc2c1Cl` [Compound 321, N-(3-Chloro-benzo[b]thiophen-2-yl)-N-(4-fluoro-3-trifluoromethyl-benzyl)-2-chloro-pyridin-3-ylsulfonamide], for which the 50% inhibitory concentration (IC50) came to 70 nM and the inhibition at 0.2 µM was 81%. On to `O=S(=O)(c1cccnc1)N(Cc1ccc(C(F)(F)F)c(F)c1)c1sc2ccccc2c1Br` [Compound 322, N-(3-Bromo-benzo[b]thiophen-2-yl)-N-(3-fluoro-4-trifluoromethyl-benzyl)-pyridin-3-ylsulfonamide], for which the IC50 came to 10 nM and the inhibition at 0.2 µM is 99%. `O=S(=O)(c1cccnc1)N(Cc1ccc(OC(F)(F)F)cc1)c1sc2ccccc2c1Br` [Compound 323, N-(3-Bromo-benzo[b]thiophen-2-yl)-N-(4-trifluoromethoxy-benzyl)-pyridin-3-ylsulfonamide]: the IC50 worked out at 10 nM and the inhibition at 0.2 µM is 102%. The like results for `O=S(=O)(c1cccnc1)N(Cc1cc(Cl)ccc1F)c1sc2ccccc2c1Br` [Compound 324, N-(3-Bromo-benzo[b]thiophen-2-yl)-N-(2-fluoro-5-chloro-benzyl)-pyridin-3-ylsulfonamide] were, in that order, 15 nM and 100%. For the compound `O=S(=O)(c1ccccc1)N(Cc1ccc(OC(F)(F)F)cc1)c1sc2ccccc2c1C(F)(F)F` [Compound 325, N-(3-Trifluoromethyl-benzo[b]thiophen-2-yl)-N-(4-trifluoromethoxy-benzyl)-benzenesulfonamide], the IC50 came out at 5 nM and the inhibition at 0.2 µM came out at 102%. For the compound `Cc1c(N(Cc2ccc(F)c(C(F)(F)F)c2)S(=O)(=O)c2ccc(-c3cc(C(F)(F)F)nn3C)s2)sc2ccccc12` [Compound 326, N-(3-Methyl-benzo[b]thiophen-2-yl)-N-(4-fluoro-3-trifluoromethyl-benzyl)-5-(2-methyl-5-trifluoromethyl-2H-pyrazol-3-yl)-thien-2-ylsulfonamide], the inhibition at 0.2 µM amounted to 14%. Take `COC(=O)c1ccc(S(=O)(=O)N(Cc2ccc(F)c(C(F)(F)F)c2)c2sc3ccccc3c2C)o1` [Compound 327, N-(3-Methyl-benzo[b]thiophen-2-yl)-N-(4-fluoro-3-trifluoromethyl-benzyl)-5-carbomethoxy-furan-2-yl-sulfonamide]: the IC50 came to 37 nM and the inhibition at 0.2 µM came out at 97%. Regarding `Cc1c(N(Cc2ccc(F)c(C(F)(F)F)c2)S(=O)(=O)c2cn(C)nc2C(F)(F)F)sc2ccccc12` [Compound 328, N-(3-Methyl-benzo[b]thiophen-2-yl)-N-(4-fluoro-3-trifluoromethyl-benzyl)-1-methyl-3-trifluoromethyl-1H-pyrazol-4-ylsulfonamide], the IC50 was found to be 35 nM and the inhibition at 0.2 µM came to 94%.

A word on the IC50: it is the concentration needed to halve the response being measured.
